From ChEMBL document CHEMBL4196216, “Dinghupeptins A-D, Chymotrypsin Inhibitory Cyclodepsipeptides Produced by a Soil-Derived Streptomyces” (J Nat Prod, 2018) come the findings set out here.

The structures appear in SMILES notation. pIC50, pKi: −log10 of the molar value. Active and inactive are the calls of the source. The rule behind the calls is not given here. Numbered stars: 1 amine (or outer) side, 2 acyl side, 3 side chain; on linkers, the order of the positions; unused ones are H or OH. Bridge positions count the residues as written; N and C are the ends. Square brackets hold non-standard residues; d marks the D form. Peptide text beside a SMILES is read from it. * marks the point of attachment. X1 = CO[C@@H]1CC[C@@H](C(=O)[*:2])N1[*:1]; NMeY = CN[C@@H](Cc1ccc(O)cc1)C(=O)O; Tigloyl = C/C=C(\C)C(=O)*; NHCH2CH2OH = OCCN*

Test [1] concerns the target Pancreatic elastase (Sus scrofa) (UniProt P08419+P00772). Briefly: Inhibition of porcine pancreas elastase up to 100 uM using N-succinyl-Ala-Ala-Ala-p-nitroanilide as substrate incubated for 15 mins followed by substrate addition measured every 30 secs. Type of test: protein assay.
The target in test [2] is T1, Chymotrypsinogen A (Bos taurus, UniProt P00766). The experiment in a line: Inhibition of bovine pancreas alpha-chymotrypsin using N-succinyl-Gly-Gly-Phe-p-nitroanilide as substrate incubated for 15 mins followed by substrate addition measured every 30 secs.
The target of test [3] is Trypsin (Sus scrofa) (UniProt P00761). Briefly: Inhibition of porcine pancreas trypsin up to 100 uM using N-alpha-benzoyl-DL-Arg-p-nitroanilide hydrochloride as substrate incubated for 15 mins followed by substrate addition measured every 30 secs.
Chain of Trypsin (Sus scrofa) (P00761 whole entry): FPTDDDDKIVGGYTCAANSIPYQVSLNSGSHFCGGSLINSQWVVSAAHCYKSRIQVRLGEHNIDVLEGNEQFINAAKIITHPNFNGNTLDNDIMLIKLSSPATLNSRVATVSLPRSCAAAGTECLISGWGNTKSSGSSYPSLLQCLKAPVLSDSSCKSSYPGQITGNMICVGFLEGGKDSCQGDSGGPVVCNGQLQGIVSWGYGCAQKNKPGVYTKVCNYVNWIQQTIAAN
Test [4] has as its system A549. Briefly: Cytotoxicity against human A549 cells after 72 hrs by MTT assay. The test is classed as functional, cell-based. For orientation: Tetrazolium dyes change colour on reduction, which living cells bring about.
For test [5], the system named is MCF7. The experiment in a line: Cytotoxicity against human MCF7 cells after 72 hrs by MTT assay. Type of test: functional, cell-based.
Test [6] has as its system HeLa. The experiment in a line: Cytotoxicity against human HeLa cells after 72 hrs by MTT assay. The test is classed as functional, cell-based.
Test [7] has as its system A549. The experiment in a line: Growth inhibition of human A549 cells up to 50 uM after 72 hrs by MTT assay. The test is classed as functional.
Test [8] deals with MCF7. The experiment in a line: Growth inhibition of human MCF7 cells up to 50 uM after 72 hrs by MTT assay. Type of test: functional.
The subject of test [9] is HeLa. Briefly: Growth inhibition of human HeLa cells up to 50 uM after 72 hrs by MTT assay. The test is classed as functional.
For test [10], the target named is T1, Chymotrypsinogen A. Briefly: Competitive inhibition of bovine pancreas alpha-chymotrypsin using N-succinyl-Gly-Gly-Phe-p-nitroanilide as substrate incubated for 15 mins followed by substrate addition measured every 30 secs by double-reciprocal Lineweaver-Burk plot analysis.
In test [11] the target is Chymotrypsinogen A (Bos taurus) (UniProt P00766). Briefly: Competitive inhibition of bovine pancreas alpha-chymotrypsin using N-succinyl-Gly-Gly-Phe-p-nitroanilide as substrate incubated for 15 mins followed by substrate addition measured every 30 secs by Dixon plot analysis.
Test [12] has the same target. Briefly: Inhibition of bovine pancreas alpha-chymotrypsin up to 100 uM using N-succinyl-Gly-Gly-Phe-p-nitroanilide as substrate incubated for 15 mins followed by substrate addition measured every 30 secs.

For `C/C=C(\C)C(=O)N[C@@H](CCC(N)=O)C(=O)N[C@@H]1C(=O)N[C@@H](CCC(=O)NCCO)C(=O)N[C@H]2CC[C@@H](O)N(C2=O)[C@@H](Cc2ccccc2)C(=O)N(C)[C@@H](Cc2ccc(O)cc2)C(=O)N[C@@H](C)C(=O)O[C@@H]1C`, the inhibition result in test [1] and in [3] was “inactive” each time. Besides, in [2], the pIC50 (usually the negative decadic logarithm of the IC50, by convention in mol/L) was 5.68. In addition, the result in [4], in test [5] and in test [6] was inactive. Besides, the “growth inhibition (GI)” value in [7], in test [8] and in test [9] was below 30% in each case.
With `C/C=C(\C)C(=O)N[C@@H](CCC(N)=O)C(=O)N[C@@H]1C(=O)N[C@@H](CCC(=O)NCCO)C(=O)N[C@H]2CC[C@@H](OC)N(C2=O)[C@@H](Cc2ccccc2)C(=O)N(C)[C@@H](Cc2ccc(O)cc2)C(=O)N[C@@H](C)C(=O)O[C@@H]1C`, the inhibition result in test [1] and in test [3] was “inactive” throughout. The compound further had a pIC50 in [2] of 5.96. Besides, the outcome in test [4], in [5] and in [6] was inactive. In addition, the “growth inhibition (GI)” value in test [7], in test [8] and in [9] was below 30% each time. Further, in [10], the pKi (usually the negative decadic logarithm of the Ki, by convention in mol/L) is 6.20. Further, in [11], the inhibition result is “Active”.
As for `C/C=C(\C)C(=O)N[C@@H](CCC(N)=O)C(=O)N[C@@H]1C(=O)N[C@@H](CCC(=O)NCCO)C(=O)N2CCC[C@H]2C(=O)N[C@@H](Cc2ccccc2)C(=O)N(C)[C@@H](Cc2ccc(O)cc2)C(=O)N[C@@H](C)C(=O)O[C@@H]1C` (Tigloyl-QTE(NHCH2CH2OH)PF[NMeY]A; ester 2-C), the inhibition entry in test [1], in test [3] and in [12] was “inactive” throughout. Further, the result in [4], in test [5] and in test [6] was inactive. In addition, the “growth inhibition (GI)” value in test [7], in test [8] and in test [9] was below 30% in each case.
As for `C/C=C(\C)C(=O)N[C@@H](CCC(N)=O)C(=O)N[C@@H]1C(=O)N[C@@H](CCC(=O)NCCO)C(=O)N2[C@H](OC)CC[C@H]2C(=O)N[C@@H](Cc2ccccc2)C(=O)N(C)[C@@H](Cc2ccc(O)cc2)C(=O)N[C@@H](C)C(=O)O[C@@H]1C` (Tigloyl-QTE(NHCH2CH2OH)[X1]F[NMeY]A; ester 2-C), the inhibition result in test [1] and in test [3] was “inactive” each time. Further, the pIC50 in test [2] was 4.64. Further, the outcome in test [4], in [5] and in [6] was inactive. Besides, the “growth inhibition (GI)” value in test [7], in test [8] and in test [9] was below 30% each time.
